Measurements: article PMC11590026, “Synthesis, enzyme inhibition, and docking studies of new schiff bases of disalicylic acid methylene-based derivatives as dual-target antibacterial agents” (Frontiers in Chemistry, 2024)
Converted amounts (≈) assume the structure as drawn. Where two headings read alike, the source gives them in different places.

How the values were obtained:
S. aureus DNA gyrase = molecular target: S. aureus DNA gyrase; design: method as in Alzahrani et al., 2022; settings: ref Alzahrani et al., 2022; read-out: S. aureus DNA gyrase inhibitor IC50; cited from earlier work
S. aureus = assay: MIC/MBC assay, twofold serial dilution; type: cell-based, Staphylococcus aureus
Protocol: (§1) The results of this in vitro assay test are consistent with the findings of the antimicrobial sensitivity test. […] It has lower antimicrobial activity than ciprofloxacin against all pathogens tested.
(§2) The MBC differs from the MIC. […]
(§3) 4.2.2. Minimum inhibitory concentration assay
(§4) In 96-well microtiter plates and […] of fresh bacterial culture of a single McFarland unit overnight, a double serial dilution of each compound […] in sterile standard saline were prepared to every single source well. Ciprofloxacin antibiotic (5 mg / mL - 1) and normal saline were included as standard reference in each assay. The plates were incubated at 37 0C overnight. As an indicator of bacterial growth, […] of p-iodonitrotetrazolium violet (INT) was added to each well and incubated at 37 0C for 30 […]
(§5) min. MIC values are recorded as the lowest concentration of the extract that completely inhibited bacterial growth that is clear well. The colorless tetrazolidium salt acts as an electron accepter and is reduced to a red colored formazan product by biological activity organisms. Where bacterial growth was inhibited, the solution in the well remained clear after incubation with INT. […]

E. coli = assay: MIC/MBC assay, twofold serial dilution; type: cell-based, Escherichia coli; settings: Escherichia coli
Protocol: as §1, §2, §3, §4, §5

[1] = system: P. aeruginosa (ATCC BAA-2111); assay: Antibacterial assay against multi-drug resistant strains (MIC/MBC); type: cell-based, Pseudomonas aeruginosa; settings: for MBC: ATCCBAA2111
B. subtilis = assay: MIC/MBC assay, twofold serial dilution; type: cell-based, Bacillus subtilis; settings: Bacillus subtilis
Protocol: as §1, §2, §3, §4, §5

Gram-positive bacteria = assay: MBC assay, Gram-positive bacteria together; type: cell-based; settings: Gram-positive bacteria (B. subtilis, S. aureus)
Source text: The MBC differs from the MIC.

[2] = Cell viability assay (MTT); type: cell-based; settings: human, MCF-10A cells (normal mammary gland epithelial cell line), 4-day incubation
Protocol: The vitality of the investigated compounds was assessed using the MCF-10A cell line, which is a normal human mammary gland epithelial cell line. Following a 4-day incubation period on MCF-10A cells with a concentration of 50 µM for each compound being studied, the viability of the cells was assessed using the MTT test ([Hisham et al., 2022]; [Mahmoud et al., 2022]).
4.2.3. Cell Viability assay
MTT assay was carried out to study the effect of compounds on mammary epithelial cells (MCF-10A). The medium in which cells were propagated contained Dulbecco's modified Eagle's medium (DMEM)/ Ham's F-12 medium (1:1) supplemented with epidermal growth factor (20 ng/mL), hydrocortisone (500 ng/mL), insulin (10 μg/mL), 2 mM glutamine and 10% fetal calf serum. After every 2-3 days, the cells were passaged using trypsin ethylenediamine tetra acetic acid (EDTA). The cells were seeded at a density of 10^4 cells mL-1 in flat-bottomed culture plates containing 96 wells each. After 24 h, medium was removed from the plates and the compounds in (in 0.1% DMSO) were added (in 200 μL medium to yield a final concentration of 0.1% v/v) to the wells of plates. A single compound was designated with four wells followed by incubation of plates for 96h at 37°C. After incubation, medium was removed completely from the plates followed by addition of MTT (0.4 mg/mL in medium) to each well and subsequent incubation of plates for 3h. MTT (along with the medium) was removed and DMSO (150μL) was added to each well of the culture plates, followed by vortexing and subsequent measurement of absorbance (at 540 nm) using microplate reader. The data are shown as percentage inhibition of proliferation in comparison with controls

C. albicans = assay: Antifungal assay (MIC/MFC), twofold serial dilution; settings: Candida albicans
P. aeruginosa = assay: MIC/MBC assay, twofold serial dilution; type: cell-based, Pseudomonas aeruginosa; settings: Pseudomonas aeruginosa
Protocol: as §1, §2, §3, §4, §5

[3] = system: S. aureus (ATCC 43300) (MRSA); assay: Antibacterial assay against multi-drug resistant strains (MIC/MBC); type: cell-based, Staphylococcus aureus; settings: S. aureus ATCC 43300 (MRSA); for MBC: read-out: MBC
A. flavus = assay: Antifungal assay (MIC/MFC), twofold serial dilution; settings: for MIC: A. flavus
E. coli (ATCC BAA-196) = assay: Antibacterial assay against multi-drug resistant strains (MIC/MBC); type: cell-based, Escherichia coli; settings: for MBC: ATCCBAA196
[4] = system: MDRB (multi-drug resistant bacteria); assay: MIC/MBC against the MDRB panel as a whole
Source text: Norfloxacin, a broad-spectrum antibiotic, worked as positive control.

[5] = Staphylococcus aureus, read-out: MIC
[6] = Pseudomonas aeruginosa, ATCCBAA2111, read-out: MIC
[7] = Escherichia coli, ATCCBAA196, read-out: MIC

For CCN(CC)S(=O)(=O)c1ccc2c(c1)C1(C(=O)N2)C(C#N)=COC(c2ccccc2)=C1C(C)=O (centres unmarked) [I], which IC50 (S. aureus DNA gyrase) is on record?
The IC50 was 18.1 µM.

What does the source list for O=C1Nc2ccc(Br)cc2/C1=N/NC(=O)c1cc(Cc2cc(Cl)c(O)c(C(=O)N/N=C3\C(=O)Nc4ccc(Br)cc43)c2)cc(Cl)c1O [Compound 6c]?
MIC (S. aureus): 0.029 ± 0.002 µM (≈ 0.0232 µg/mL); MBC (S. aureus; Staphylococcus aureus, read-out: MBC): 0.045 ± 0.002 µM (≈ 0.0361 µg/mL); MIC (S. aureus; [5]): 0.029 µM (≈ 0.0232 µg/mL); MBC (E. coli; read-out: MBC): 0.088 ± 0.006 µM (≈ 0.0705 µg/mL); MIC (E. coli; read-out: MIC): 0.066 ± 0.004 µM (≈ 0.0529 µg/mL); MBC ([1]; Pseudomonas aeruginosa): 9.2 ± 0.6 µM (≈ 7.37 µg/mL); MIC [1, 6]: 6.85 ± 0.5 µM (≈ 5.49 µg/mL); MBC (B. subtilis; read-out: MBC): 0.051 ± 0.003 µM (≈ 0.0409 µg/mL); MIC (B. subtilis; read-out: MIC): 0.033 ± 0.002 µM (≈ 0.0264 µg/mL); MBC (Gram-positive bacteria): 0.028 to 0.058 µM (≈ 0.0224 to 0.0465 µg/mL); viability at 96 h, 50 µM [2]: 91%; MFC (C. albicans): 44.8 ± 3 µM (≈ 35.9 µg/mL); MIC (C. albicans): 21.3 ± 1 µM (≈ 17.1 µg/mL); MBC (P. aeruginosa; read-out: MBC): 0.085 ± 0.006 µM (≈ 0.0681 µg/mL); MIC (P. aeruginosa; read-out: MIC): 0.065 ± 0.005 µM (≈ 0.0521 µg/mL); MBC ([3]; Staphylococcus aureus): 7.1 ± 0.5 µM (≈ 5.69 µg/mL); MIC [3, 5]: 4.7 ± 0.2 µM (≈ 3.77 µg/mL); MIC (A. flavus): 18.20 ± 1 µM (≈ 14.6 µg/mL); MFC (A. flavus; Aspergillus flavus): 35.9 ± 2 µM (≈ 28.8 µg/mL); MIC (A. flavus; Aspergillus flavus): 14.5 to 19.5 µM (≈ 11.6 to 15.6 µg/mL); MBC (E. coli (ATCC BAA-196); Escherichia coli): 8.2 ± 0.6 µM (≈ 6.57 µg/mL); MIC (E. coli (ATCC BAA-196); [7]): 5.3 ± 0.2 µM (≈ 4.25 µg/mL)

With O=C1Nc2ccc(S(=O)(=O)N3CCOCC3)cc2/C1=N/NC(=O)C12CC3CC(CC(C3)C1)C2 [II] as the compound, how does the IC50 (S. aureus DNA gyrase) read?
Its IC50 is 19.3 µM.

For CCn1cc(C(=O)O)c(=O)c2cc(F)c(N3CCNCC3)cc21 [Norfloxacin, reference compound], which MBC ([4]; read-out: MBC values) is on record?
Its MBC is 2.8 to 4.7 µM (≈ 0.894 to 1.5 µg/mL).

What about the MIC ([4]; read-out: MIC values) of the same compound?
Its MIC is 1.2 to 3.2 µM (≈ 0.383 to 1.02 µg/mL).

And the MIC [1]?
Its MIC is 3.20 ± 0.10 µM (≈ 1.02 µg/mL).

What about the MBC ([1]; Pseudomonas aeruginosa) of the same compound?
The MBC was 4.7 ± 0.2 µM (≈ 1.5 µg/mL).

What about the MIC [1, 6] of the same compound?
The MIC was 3.2 µM (≈ 1.02 µg/mL).

What about the MIC [3] of the same compound?
The MIC was 1.20 ± 0.10 µM (≈ 0.383 µg/mL).

What about the MBC ([3]; Staphylococcus aureus) of the same compound?
Its MBC is 2.8 ± 0.1 µM (≈ 0.894 µg/mL).

And the MIC [3, 5]?
The MIC was 1.2 µM (≈ 0.383 µg/mL).

What about the MIC (E. coli (ATCC BAA-196)) of the same compound?
Its MIC is 1.60 ± 0.10 µM (≈ 0.511 µg/mL).

What about the MBC (E. coli (ATCC BAA-196); Escherichia coli) of the same compound?
Its MBC is 3.5 ± 0.1 µM (≈ 1.12 µg/mL).

And the MIC (E. coli (ATCC BAA-196); [7])?
The MIC was 1.6 µM (≈ 0.511 µg/mL).
